3 molecules from US8722849B2, “Polypeptides” (Novo Nordisk A/S, priority 2011, dated 2014) can be followed below.

In brackets after ≈: the same amount, converted by molar mass. Read-outs that look alike come from different tables or passages of the source. Starred links: 1 amine or outer side, 2 acyl side, 3 side chain; linkers in the order of their positions; H or OH if unused. Positions of bridges follow the written chain, without caps; N, C: chain ends. Residues, ends and D or L forms follow the SMILES beside them. *: point of attachment. C20 diacid = O=C(O)CCCCCCCCCCCCCCCCCCC(=O)*; C18 diacid = O=C(O)CCCCCCCCCCCCCCCCC(=O)*; γGlu = O=C(O)[C@H](CCC(=O)[*:2])N[*:1]

Data set [1] deals with T1, human calcitonin receptor (Homo sapiens, UniProt P30988).
T1 construct: expressed in transfected cells; host or cells: BHK570
T1 sequence (P30988 25-474): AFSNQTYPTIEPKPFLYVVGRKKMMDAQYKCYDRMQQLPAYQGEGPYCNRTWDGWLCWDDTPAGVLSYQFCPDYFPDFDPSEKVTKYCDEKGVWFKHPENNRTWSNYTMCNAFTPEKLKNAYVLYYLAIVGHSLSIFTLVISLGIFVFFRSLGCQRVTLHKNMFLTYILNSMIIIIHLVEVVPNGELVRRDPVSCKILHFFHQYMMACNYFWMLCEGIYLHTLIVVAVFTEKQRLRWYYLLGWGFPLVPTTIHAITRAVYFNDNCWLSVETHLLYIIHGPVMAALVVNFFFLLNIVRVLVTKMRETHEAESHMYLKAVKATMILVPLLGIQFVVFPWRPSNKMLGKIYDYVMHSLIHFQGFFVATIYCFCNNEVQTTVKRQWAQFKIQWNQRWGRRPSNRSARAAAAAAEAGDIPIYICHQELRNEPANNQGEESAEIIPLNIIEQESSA
Nature of the data set: Assay (II)a functional CRE-luciferase assay, human calcitonin receptor. Format: cell-based. The following applies: Table 7; human calcitonin (CTa) receptor.

Data set [2] in a line: Assay (IV) determination of solubility. The format is physicochemical. Summed up:
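Solubility was profiled across pH 3.0–8.0 after 18 hours at room temperature: a ~500 nmol/ml aqueous polypeptide solution was diluted 1:1 into 100 mM glycylglycine or bistrispropane buffers. After centrifugation, HPLC gave the dissolved concentration.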

Data set [3] is described as follows: Assay (III) ThT fibrillation assay for physical stability. Format: physicochemical. Summed up:
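Freshly prepared formulations, pH-adjusted, with 1 μM ThT; four or eight replicates incubated at 37 °C under 960 rpm orbital shaking. Fluorescence (ex 444/em 485 nm) read every 20 min; […]. Peptide concentration measured by RP-HPLC before and after the run.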

Data set [4] addresses T2, human amylin receptor (amylin 3(a) receptor: human calcitonin receptor + RAMP-3) (Homo sapiens, UniProt O60896+P30988).
T2 construct: expressed in transfected cells; host or cells: BHK570
T2 sequence (P30988 25-474): T1 sequence (P30988 25-474)
T2 sequence (O60896 24-148 partner): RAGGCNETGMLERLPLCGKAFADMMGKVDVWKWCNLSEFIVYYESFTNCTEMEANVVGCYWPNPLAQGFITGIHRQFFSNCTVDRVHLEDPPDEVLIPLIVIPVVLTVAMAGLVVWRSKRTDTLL
The data set is described as follows: Assay (II)a functional CRE-luciferase assay, human amylin receptor. The format is cell-based. As to conditions: Table 2; BHK amylin 3(a)-receptor/CRE-luc cells.

The mark [5] stands for this setting: bistrispropane buffer, pH 6, pH 6.0, read-out: Solubility pH 6.0.
The mark [6] stands for this setting: bistrispropane buffer, pH 6.5, pH 6.5, read-out: Solubility pH 6.5.
The mark [7] stands for this setting: bistrispropane buffer, pH 7, pH 7.0, read-out: Solubility pH 7.0.
[8] abbreviates: bistrispropane buffer, pH 7.5, pH 7.5, read-out: Solubility pH 7.5.
[9] abbreviates: bistrispropane buffer, pH 8, pH 8.0, read-out: Solubility pH 8.0.
Where [10] appears, read: glycylglycine buffer, pH 3, pH 3.0, read-out: Solubility pH 3.0.
[11] abbreviates: glycylglycine buffer, pH 4, pH 4.0, 18 hours at room temperature, Table 2, read-out: Solubility pH 4.0.
[12] abbreviates: glycylglycine buffer, pH 4, pH 4.0, read-out: Solubility pH 4.0.
[13] abbreviates: glycylglycine buffer, pH 5, pH 5.0, read-out: Solubility pH 5.0.
[14] abbreviates: bistrispropane buffer, pH 7, pH 7.0, 18 hours at room temperature, Table 3, read-out: Solubility pH 7.0.

By EC50 is commonly meant the concentration that produces a half-maximal response. By solubility is commonly meant how much of the substance goes into solution per volume. Regarding `CC[C@H](C)[C@H](NC(=O)[C@@H]1CCCN1C(=O)CNC(=O)[C@H](Cc1ccccc1)NC(=O)[C@H](CC(N)=O)NC(=O)[C@H](CC(N)=O)NC(=O)[C@H](CO)NC(=O)[C@H](CO)NC(=O)[C@H](Cc1c[nH]cn1)NC(=O)[C@H](CCCNC(=N)N)NC(=O)[C@H](CC(C)C)NC(=O)[C@H](Cc1ccccc1)NC(=O)[C@H](CCC(=O)O)NC(=O)[C@H](C)NC(=O)[C@H](CC(C)C)NC(=O)[C@H](CCCNC(=N)N)NC(=O)[C@H](CCC(N)=O)NC(=O)[C@@H](NC(=O)[C@H](C)NC(=O)[C@@H]1CSSC[C@H](NC(=O)[C@H](CCCCN)NC(=O)[C@H](Cc2c[nH]cn2)NC(=O)[C@H](Cc2c[nH]cn2)NC(=O)CC[C@H](NC(=O)CCCCCCCCCCCCCCCCCCC(=O)O)C(=O)O)C(=O)N[C@@H](CC(N)=O)C(=O)N[C@@H]([C@@H](C)O)C(=O)N[C@@H](C)C(=O)N[C@@H]([C@@H](C)O)C(=O)N1)[C@@H](C)O)C(=O)N[C@@H](CC(C)C)C(=O)N1CCC[C@H]1C(=O)N1CCC[C@H]1C(=O)N[C@H](C(=O)N[C@@H](CC(N)=O)C(=O)N[C@H](C(=O)NCC(=O)N[C@@H](CO)C(=O)N[C@@H](Cc1c[nH]cn1)C(=O)N[C@H](C(=O)N[C@@H](Cc1ccc(O)cc1)C(N)=O)[C@@H](C)O)C(C)C)[C@@H](C)O` [Example 69, N-alpha-[(S)-4-Carboxy-4-(19-carboxynonadecanoylamino)butyryl]-His-His-[Glu14,Arg17,His35]-pramlintide] ({C20 diacid-γGlu}-HHKCNTATCATQRLAEFLRHSSNNFGPILPPTNVGSHTY-NH2; disulfide 4-9 (inferred)), the concentration giving a half-maximal response (EC50) in data set [1] was determined as 0.615 nM; in data set [4], 0.101 nM. The solubility at 18 h in data set [2] (setting [5]) is > 200 µM; in data set [2] (setting [6]), 158 µM (≈ 754 µg/mL); in data set [2] (setting [7]) it was 6 µM (≈ 28.6 µg/mL); in data set [2] (setting [8]), 2 µM (≈ 9.54 µg/mL); in data set [2] (setting [9]), 24 µM (≈ 115 µg/mL); in data set [2] (setting [10]) it was > 200 µM. The solubility at 18 h in data set [2] (setting [11]), in data set [2] (setting [12]) and in data set [2] (setting [13]) was > 200 µM throughout. For the same molecule, the “ThT pH 4.0 lag time” value in data set [3] (ThT fibrillation assay) is on record as >45 h. Moreover, in data set [3] (ThT fibrillation assay), the “ThT pH 4.0 lag time (h)” value is given as >45 h.

As for `CC[C@H](C)[C@H](NC(=O)[C@@H]1CCCN1C(=O)CNC(=O)[C@H](Cc1ccccc1)NC(=O)[C@H](CC(N)=O)NC(=O)[C@H](CC(N)=O)NC(=O)[C@H](CO)NC(=O)[C@H](CO)NC(=O)[C@H](Cc1c[nH]cn1)NC(=O)[C@@H](NC(=O)[C@H](CC(C)C)NC(=O)[C@H](Cc1ccccc1)NC(=O)[C@H](CCC(=O)O)NC(=O)[C@H](C)NC(=O)[C@H](CC(C)C)NC(=O)[C@H](CCCNC(=N)N)NC(=O)[C@H](CCC(N)=O)NC(=O)[C@@H](NC(=O)[C@H](C)NC(=O)[C@@H]1CSSC[C@H](NC(=O)[C@H](CCCCN)NC(=O)CC[C@H](NC(=O)CCCCCCCCCCCCCCCCCCC(=O)O)C(=O)O)C(=O)N[C@@H](CC(N)=O)C(=O)N[C@@H]([C@@H](C)O)C(=O)N[C@@H](C)C(=O)N[C@@H]([C@@H](C)O)C(=O)N1)[C@@H](C)O)C(C)C)C(=O)N[C@@H](CC(C)C)C(=O)N1CCC[C@H]1C(=O)N1CCC[C@H]1C(=O)N[C@H](C(=O)N[C@@H](CC(N)=O)C(=O)N[C@H](C(=O)NCC(=O)N[C@@H](CO)C(=O)N[C@@H](CC(N)=O)C(=O)N[C@H](C(=O)N1CCC[C@H]1C(N)=O)[C@@H](C)O)C(C)C)[C@@H](C)O` [Example 86, N-alpha-[(S)-4-Carboxy-4-(19-carboxynonadecanoylamino)butyryl]-[Glu14,Pro37]-pramlintide] ({C20 diacid-γGlu}-KCNTATCATQRLAEFLVHSSNNFGPILPPTNVGSNTP-NH2; disulfide 2-7 (inferred); C-terminus assumed), the results for the EC50 in data set [1] and in data set [4] were 0.0525 nM and 0.055 nM, respectively. The solubility at 18 h in data set [2] (setting [5]), in data set [2] (setting [6]), in data set [2] (setting [14]), in data set [2] (setting [7]), in data set [2] (setting [8]) and in data set [2] (setting [9]) was > 200 µM throughout. For the same molecule, the solubility at 18 h in data set [2] (setting [10]), in data set [2] (setting [11]), in data set [2] (setting [12]) and in data set [2] (setting [13]) was > 200 µM in each case. Further, the “ThT pH 4.0 lag time (h)” value in data set [3] (ThT fibrillation assay) amounted to 5 h.

`CC[C@H](C)[C@H](NC(=O)[C@@H]1CCCN1C(=O)CNC(=O)[C@H](Cc1ccccc1)NC(=O)[C@H](CC(N)=O)NC(=O)[C@H](CC(N)=O)NC(=O)[C@H](CO)NC(=O)[C@H](CO)NC(=O)[C@H](Cc1c[nH]cn1)NC(=O)[C@H](CCCNC(=N)N)NC(=O)[C@H](CC(C)C)NC(=O)[C@H](Cc1ccccc1)NC(=O)[C@H](CCC(=O)O)NC(=O)[C@H](C)NC(=O)[C@H](CC(C)C)NC(=O)[C@H](CCCNC(=N)N)NC(=O)[C@H](CCC(N)=O)NC(=O)[C@@H](NC(=O)[C@H](C)NC(=O)[C@@H]1CSSC[C@H](NC(=O)[C@H](CCCCN)NC(=O)CC[C@H](NC(=O)CCCCCCCCCCCCCCCCC(=O)O)C(=O)O)C(=O)N[C@@H](CC(N)=O)C(=O)N[C@@H]([C@@H](C)O)C(=O)N[C@@H](C)C(=O)N[C@@H]([C@@H](C)O)C(=O)N1)[C@@H](C)O)C(=O)N[C@@H](CC(C)C)C(=O)N1CCC[C@H]1C(=O)N1CCC[C@H]1C(=O)N[C@H](C(=O)N[C@@H](CC(N)=O)C(=O)N[C@H](C(=O)NCC(=O)N[C@@H](CO)C(=O)N[C@@H](CC(N)=O)C(=O)N[C@H](C(=O)N[C@@H](Cc1ccc(O)cc1)C(N)=O)[C@@H](C)O)C(C)C)[C@@H](C)O` [Example 51, N-alpha-[(S)-4-Carboxy-4-(17-carboxyheptadecanoylamino)butyryl]-[Glu14,Arg17]-pramlintide] ({C18 diacid-γGlu}-KCNTATCATQRLAEFLRHSSNNFGPILPPTNVGSNTY-NH2; disulfide 2-7 (inferred); C-terminus assumed): the EC50 in data set [1] was found to be 0.6 nM; in data set [4] it was 0.061 nM. For the same molecule, the solubility at 18 h in data set [2] (setting [5]) was > 200 µM; in data set [2] (setting [6]), > 200 µM; in data set [2] (setting [14]), > 200 µM; in data set [2] (bistrispropane buffer, pH 7, pH 7.0, Table 8, read-out: Solubility pH 7.0) it was > 200 µM; in data set [2] (setting [7]), > 200 µM; in data set [2] (setting [8]), > 200 µM. The solubility at 18 h in data set [2] (setting [9]), in data set [2] (setting [10]), in data set [2] (setting [11]), in data set [2] (setting [12]) and in data set [2] (setting [13]) was > 200 µM throughout. The “ThT pH 4.0 lag time” value in data set [3] (Table 8) and in data set [3] (ThT fibrillation assay) was 28.7 h in each case. Moreover, the “ThT pH 4.0 lag time (h)” value in data set [3] (ThT fibrillation assay) was found to be 28.7 h.
